Reference: ChEMBL document CHEMBL5537166, “PROTACs Targeting BRM (SMARCA2) Afford Selective In Vivo Degradation over BRG1 (SMARCA4) and Are Active in BRG1 Mutant Xenograft Tumor Models” (J Med Chem, 2024)
Blank lines part the entries; values can stand above or below the molecule they belong to.

How the values were obtained:
Calu-6 = assay: Antiproliferative activity against human Calu-6 cells assessed as growth inhibition incubated for 7 days by celltiter glo 2.0 assay; type: functional; details: Calu-6, 168 h, time 7 day
Mus musculus [1] = assay: In-vivo PROTAC activity at BRM/VHL in CD-1 mouse xenografted with Murine stromal cell line at 20 mg/kg, iv measured for 96 hrs; type: functional
[2] = Clearance in mouse at 1 mg/kg, iv measured upto 60 mins by LC-MS/MS analysis; type: ADME, organism-based; details: in vivo, 1 h
NCI-H1944 = assay: Antiproliferative activity against BRM-dependent human NCI-H1944 cells assessed as growth inhibition incubated for 7 days by celltiter glo 2.0 assay; type: functional; details: NCI-H1944, 168 h, time 7 day
[3] = target: von Hippel-Lindau disease tumor suppressor/SWI/SNF-related matrix-associated actin-dependent regulator of chromatin subfamily A member 4 (Homo sapiens, UniProt P51532+P40337); assay: PROTAC activity at VHL/ BRG1 in human SW1573 cells assessed as induction of BRG1 degradation incubated for 22 hrs by Western blotting analysis; type: cell-based
[4] = Half life in mouse at 1 mg/kg, iv measured upto 60 mins by LC-MS/MS analysis; type: ADME, organism-based; details: in vivo
Mus musculus [5] = assay: In-vivo PROTAC activity at BRM/VHL in CD-1 mouse xenografted with human HCC2302 cells at 20 mg/kg, iv measured for 96 hrs; type: functional
[6] = Metabolic stability in human liver microsome assessed as hepatic extraction ratio measured upto 60 mins by LC-MS/MS analysis; type: ADME; details: liver microsomes
[7] = Plasma protein binding in mouse incubated for 15 mins by LC-MS/MS analysis; type: ADME, cell-free; details: read-out: PPB (converted)
[8] = Drug concentration in mouse tumor at 20 mg/kg, ip measured for 96 hrs; type: ADME, organism-based, Neoplasm; details: read-out: Ct
[9] = target: T1, von Hippel-Lindau disease tumor suppressor/SWI/SNF-related matrix-associated actin-dependent regulator of chromatin subfamily A member 2 (Homo sapiens, UniProt P51531+P40337); assay: PROTAC activity at VHL/BRM in human SW1573 cells assessed as induction of […] incubated for 22 hrs by Western blotting analysis; type: cell-based
Target sequence in this assay (P51531 whole entry): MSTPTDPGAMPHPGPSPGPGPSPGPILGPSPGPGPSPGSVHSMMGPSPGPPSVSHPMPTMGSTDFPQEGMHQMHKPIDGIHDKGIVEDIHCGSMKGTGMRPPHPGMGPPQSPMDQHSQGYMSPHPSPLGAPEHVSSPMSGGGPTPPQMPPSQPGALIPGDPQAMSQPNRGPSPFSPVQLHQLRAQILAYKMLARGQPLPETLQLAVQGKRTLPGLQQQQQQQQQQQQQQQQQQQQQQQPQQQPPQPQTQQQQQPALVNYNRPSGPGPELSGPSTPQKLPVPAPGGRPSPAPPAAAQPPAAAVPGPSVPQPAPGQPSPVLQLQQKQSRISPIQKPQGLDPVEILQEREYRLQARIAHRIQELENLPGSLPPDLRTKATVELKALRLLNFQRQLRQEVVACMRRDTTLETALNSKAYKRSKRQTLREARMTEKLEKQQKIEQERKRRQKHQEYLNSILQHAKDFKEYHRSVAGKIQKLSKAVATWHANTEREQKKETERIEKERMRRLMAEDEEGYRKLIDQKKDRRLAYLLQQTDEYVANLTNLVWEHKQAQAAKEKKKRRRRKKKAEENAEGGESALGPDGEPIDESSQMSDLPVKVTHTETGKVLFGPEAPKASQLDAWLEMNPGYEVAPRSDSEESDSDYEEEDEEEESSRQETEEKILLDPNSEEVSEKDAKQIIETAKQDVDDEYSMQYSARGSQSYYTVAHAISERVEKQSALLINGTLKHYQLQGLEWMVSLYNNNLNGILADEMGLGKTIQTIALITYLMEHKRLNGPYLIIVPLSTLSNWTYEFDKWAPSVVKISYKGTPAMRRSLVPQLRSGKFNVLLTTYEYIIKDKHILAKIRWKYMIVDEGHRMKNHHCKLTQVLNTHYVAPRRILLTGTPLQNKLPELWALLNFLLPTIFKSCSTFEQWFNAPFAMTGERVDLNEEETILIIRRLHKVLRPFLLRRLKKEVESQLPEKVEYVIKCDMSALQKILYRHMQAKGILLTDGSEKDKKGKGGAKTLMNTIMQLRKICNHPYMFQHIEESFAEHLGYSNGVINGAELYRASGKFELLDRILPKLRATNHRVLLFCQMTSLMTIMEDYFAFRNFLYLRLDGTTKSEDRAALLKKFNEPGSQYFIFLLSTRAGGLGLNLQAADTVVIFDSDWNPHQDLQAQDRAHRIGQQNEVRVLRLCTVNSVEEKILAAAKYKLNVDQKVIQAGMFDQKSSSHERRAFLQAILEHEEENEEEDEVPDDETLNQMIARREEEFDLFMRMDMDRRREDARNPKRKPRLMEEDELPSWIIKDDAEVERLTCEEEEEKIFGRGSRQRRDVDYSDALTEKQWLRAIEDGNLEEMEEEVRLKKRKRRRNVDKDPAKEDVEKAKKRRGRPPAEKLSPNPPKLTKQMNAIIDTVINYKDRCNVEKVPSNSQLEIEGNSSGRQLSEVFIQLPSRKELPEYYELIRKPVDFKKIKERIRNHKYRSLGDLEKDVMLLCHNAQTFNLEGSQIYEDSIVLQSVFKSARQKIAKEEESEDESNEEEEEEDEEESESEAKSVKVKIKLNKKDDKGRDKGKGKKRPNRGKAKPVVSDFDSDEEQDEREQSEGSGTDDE
Target sequence in this assay (P40337 whole entry): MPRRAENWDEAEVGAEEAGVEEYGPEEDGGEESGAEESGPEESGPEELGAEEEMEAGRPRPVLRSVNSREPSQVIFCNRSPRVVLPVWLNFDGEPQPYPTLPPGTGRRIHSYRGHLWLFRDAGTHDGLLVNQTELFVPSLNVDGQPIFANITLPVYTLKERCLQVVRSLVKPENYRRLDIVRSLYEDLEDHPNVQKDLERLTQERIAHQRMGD

[10] = target: T2, SWI/SNF-related matrix-associated actin-dependent regulator of chromatin subfamily A member 2 (Homo sapiens, UniProt P51531); assay: Binding affinity to his-tagged BRM bromodomain (unknown origin) by alpha-LISA assay
[11] = target: T2, SWI/SNF-related matrix-associated actin-dependent regulator of chromatin subfamily A member 2; assay: Binding affinity to his-tagged BRM bromodomain (unknown origin) assessed as dissociation constant
Homo sapiens [12] = species on record: Homo sapiens; assay: Ratio of DC50 for VHL/ BRG1 in human SW1573 cells to DC50 for VHL/BRM in human SW1573 cells; type: cell-based
[13] = Drug concentration in mouse plasma measured for 24 hrs; type: ADME, cell-free
[14] = target: T1, von Hippel-Lindau disease tumor suppressor/SWI/SNF-related matrix-associated actin-dependent regulator of chromatin subfamily A member 2
Target sequence in this assay (P40337 whole entry, looked up): as the sequence (P40337 whole entry) above
Target sequence in this assay (P51531 whole entry, looked up): as the sequence (P51531 whole entry) above

Homo sapiens [15] = species on record: Homo sapiens; assay: Ratio of binding affinity to VHL/BRM bromodomain (unknown origin) assessed as ternary complex association half life by SPR analysis to binding affinity to VHL/ BRG1 bromodomain (unknown origin) assessed as ternary complex association half life by SPR analysis

von Hippel-Lindau disease tumor suppressor/SWI/SNF-related matrix-associated actin-dependent regulator of chromatin subfamily A member 4, sequence (P51532 whole entry): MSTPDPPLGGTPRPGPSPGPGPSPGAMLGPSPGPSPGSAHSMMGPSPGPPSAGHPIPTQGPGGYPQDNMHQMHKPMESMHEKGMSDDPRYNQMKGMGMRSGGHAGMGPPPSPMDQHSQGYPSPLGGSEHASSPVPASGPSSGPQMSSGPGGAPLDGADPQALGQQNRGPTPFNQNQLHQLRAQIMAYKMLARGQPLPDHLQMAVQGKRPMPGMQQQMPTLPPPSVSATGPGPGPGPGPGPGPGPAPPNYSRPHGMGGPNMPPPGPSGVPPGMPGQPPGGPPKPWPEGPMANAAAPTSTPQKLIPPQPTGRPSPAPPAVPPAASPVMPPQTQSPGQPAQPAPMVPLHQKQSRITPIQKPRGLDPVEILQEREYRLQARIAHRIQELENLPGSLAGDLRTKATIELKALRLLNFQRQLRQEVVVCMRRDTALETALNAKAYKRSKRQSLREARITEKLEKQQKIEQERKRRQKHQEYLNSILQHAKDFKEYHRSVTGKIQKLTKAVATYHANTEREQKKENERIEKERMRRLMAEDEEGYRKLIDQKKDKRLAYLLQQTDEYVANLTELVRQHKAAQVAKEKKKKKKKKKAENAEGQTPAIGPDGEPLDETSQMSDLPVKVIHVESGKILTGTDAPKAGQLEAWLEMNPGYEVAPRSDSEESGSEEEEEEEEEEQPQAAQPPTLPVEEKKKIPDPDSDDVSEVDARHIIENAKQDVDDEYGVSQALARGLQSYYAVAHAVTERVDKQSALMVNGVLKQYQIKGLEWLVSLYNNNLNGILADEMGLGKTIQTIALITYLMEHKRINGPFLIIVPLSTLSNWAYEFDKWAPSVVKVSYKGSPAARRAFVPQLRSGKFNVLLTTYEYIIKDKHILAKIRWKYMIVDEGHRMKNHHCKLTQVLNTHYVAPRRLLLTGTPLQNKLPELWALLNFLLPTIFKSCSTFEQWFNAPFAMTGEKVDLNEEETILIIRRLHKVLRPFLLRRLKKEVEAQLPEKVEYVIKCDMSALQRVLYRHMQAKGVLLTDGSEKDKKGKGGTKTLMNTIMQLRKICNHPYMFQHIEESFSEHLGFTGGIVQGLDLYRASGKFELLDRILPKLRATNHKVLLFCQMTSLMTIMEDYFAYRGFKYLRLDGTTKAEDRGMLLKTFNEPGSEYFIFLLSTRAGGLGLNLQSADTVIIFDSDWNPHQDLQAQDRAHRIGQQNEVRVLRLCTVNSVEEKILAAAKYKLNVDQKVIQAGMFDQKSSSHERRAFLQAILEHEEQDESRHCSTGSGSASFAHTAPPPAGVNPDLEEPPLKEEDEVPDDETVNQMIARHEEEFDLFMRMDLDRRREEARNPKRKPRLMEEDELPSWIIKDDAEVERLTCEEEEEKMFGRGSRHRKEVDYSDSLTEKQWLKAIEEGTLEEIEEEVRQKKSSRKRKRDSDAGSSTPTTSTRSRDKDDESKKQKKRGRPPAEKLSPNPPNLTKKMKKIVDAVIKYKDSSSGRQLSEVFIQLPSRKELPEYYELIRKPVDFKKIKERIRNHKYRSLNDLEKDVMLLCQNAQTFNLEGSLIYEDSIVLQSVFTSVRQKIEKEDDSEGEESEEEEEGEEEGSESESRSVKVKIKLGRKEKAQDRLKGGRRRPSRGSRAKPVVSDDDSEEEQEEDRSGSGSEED
von Hippel-Lindau disease tumor suppressor/SWI/SNF-related matrix-associated actin-dependent regulator of chromatin subfamily A member 4, sequence (P40337 whole entry): as the sequence (P40337 whole entry) above
T2 sequence (P51531 whole entry): as the sequence (P51531 whole entry) above

Structure (SMILES): Cc1ncsc1-c1ccc([C@H](C)NC(=O)[C@@H]2C[C@@H](O)CN2C(=O)[C@@H](c2cc(N3CCN(C[C@H]4C[C@H](Oc5cc(N6C7CCC6CN(c6cc(-c8ccccc8O)nnc6N)C7)ccn5)C4)CC3)no2)C(C)C)cc1
GI50 (Calu-6): 6.8 nM | Activity (Mus musculus [1]): 53% | clearance [2]: 11 mL/min/kg | GI50 (NCI-H1944): 0.45 nM | DC50 [3]: 1.3 nM | half-life [4]: 3.7 h | Activity (Mus musculus [5]): 87% | hepatic extraction ratio at 1 h [6]: 0.27 | fraction unbound at 0.25 h [7]: 0.011 | concentration at 96 h [8]: 75 ng/g | DC50 [9]: 0.09 nM

GI50 (Calu-6): > 300 nM | GI50 (NCI-H1944): > 300 nM | IC50 [10]: 18 nM
Structure (SMILES): COc1cc(N2CCN(c3cc(-c4ccccc4O)nnc3N)CC2)ccn1

Structure (SMILES): Cc1ncsc1-c1ccc([C@H](C)NC(=O)[C@@H]2C[C@@H](O)CN2C(=O)[C@@H](c2cc(N3CCC(CN4CCC(O[C@H]5C[C@H](Oc6cc(N7C8CCC7CN(c7cc(-c9ccccc9)nnc7N)C8)ccn6)C5)CC4)CC3)no2)C(C)C)cc1
Kd [11]: 8540 nM | GI50 (NCI-H1944): > 5000 nM

IC50 [10]: 2.7 nM
Structure (SMILES): COCCOc1cc(N2C3CCC2CN(c2cc(-c4ccccc4O)nnc2N)C3)ccn1

Structure (SMILES): Cc1ncsc1-c1ccc(CNC(=O)[C@@H]2C[C@@H](O)CN2C(=O)[C@@H](c2cc(OCCOCCOCCOc3cc(N4C5CCC4CN(c4cc(-c6ccccc6O)nnc4N)C5)ccn3)no2)C(C)C)cc1
DC50 [3]: 5.9 nM | Ratio (Homo sapiens [12]): 2.2 | DC50 [9]: 0.76 nM

GI50 (Calu-6): > 300 nM | GI50 (NCI-H1944): > 300 nM | IC50 [10]: 1.2 nM
Structure (SMILES): COc1cc(N2C3CCC2CN(c2cc(-c4ccccc4O)nnc2N)C3)ccn1

Structure (SMILES): Cc1ncsc1-c1ccc([C@H](C)NC(=O)[C@@H]2C[C@@H](O)CN2C(=O)[C@@H](c2cc(OCCN3CCN(CCOc4cc(N5C6CCC5CN(c5cc(-c7ccccc7O)nnc5N)C6)ccn4)C[C@@H]3C)no2)C(C)C)cc1
GI50 (Calu-6): 38 nM | GI50 (NCI-H1944): 0.72 nM | DC50 [3]: 2.7 nM | Ratio (Homo sapiens [12]): 25 | hepatic extraction ratio at 1 h [6]: 0.83 | DC50 [9]: 0.11 nM

Structure (SMILES): Cc1ncsc1-c1ccc(CNC(=O)[C@@H]2C[C@@H](O)CN2C(=O)[C@@H](NC(=O)COCCOCCOCCOc2cc(N3C4CCC3CN(c3cc(-c5ccccc5O)nnc3N)C4)ccn2)C(C)(C)C)cc1
DC50 [3]: 703 nM | Ratio (Homo sapiens [12]): 7.8 | DC50 [9]: 32 nM

Structure (SMILES): Cc1ncsc1-c1ccc([C@H](C)NC(=O)[C@@H]2C[C@@H](O)CN2C(=O)[C@@H](c2cc(N3CCC(O[C@H]4C[C@H](Oc5cc(N6C7CCC6CN(c6cc(-c8ccccc8O)nnc6N)C7)ccn5)C4)CC3)no2)C(C)C)cc1
GI50 (Calu-6): 4.4 nM | Activity (Mus musculus [1]): 22% | clearance [2]: 9.2 mL/min/kg | concentration at 24 h [13]: 112 nM | GI50 (NCI-H1944): 0.3 nM | DC50 [3]: 1.8 nM | half-life [4]: 1.4 h | Activity (Mus musculus [5]): 70% | Ratio (Homo sapiens [12]): 13 | hepatic extraction ratio at 1 h [6]: 0.14 | fraction unbound at 0.25 h [7]: 0.019 | concentration at 96 h [8]: 175 ng/g | DC50 [9]: 0.14 nM

Structure (SMILES): Cc1ncsc1-c1ccc(CNC(=O)[C@@H]2C[C@@H](O)CN2C(=O)[C@@H](c2cc(OCCN3CCN(CCOc4cc(N5C6CCC5CN(c5cc(-c7ccccc7O)nnc5N)C6)ccn4)CC3)no2)C(C)C)cc1
GI50 (Calu-6): 62 nM | GI50 (NCI-H1944): 3.6 nM | DC50 [3]: 9.5 nM | hepatic extraction ratio at 1 h [6]: 0.65 | fraction unbound at 0.25 h [7]: 0.015 | DC50 [9]: 0.39 nM

Structure (SMILES): Cc1ncsc1-c1ccc([C@H](C)NC(=O)[C@@H]2C[C@@H](O)CN2C(=O)[C@@H](c2cc(OCCN3CCN(CCOc4cc(N5C6CCC5CN(c5cc(-c7ccccc7O)nnc5N)C6)ccn4)[C@H](C)C3)no2)C(C)C)cc1
GI50 (Calu-6): 12 nM | Activity (Mus musculus [1]): 0% | concentration at 24 h [13]: 22 nM | GI50 (NCI-H1944): 0.26 nM | DC50 [3]: 0.71 nM | Activity (Mus musculus [5]): 0% | Ratio (Homo sapiens [12]): 13 | hepatic extraction ratio at 1 h [6]: 0.83 | fraction unbound at 0.25 h [7]: 0.015 | concentration at 96 h [8]: 76 ng/g | DC50 [9]: 0.055 nM

GI50 (NCI-H1944): > 300 nM
Structure (SMILES): Cc1ncsc1-c1ccc([C@H](C)NC(=O)[C@@H]2C[C@H](O)CN2C(=O)[C@@H](c2cc(N3CCC(CN4CCC(O[C@H]5C[C@H](Oc6cc(N7C8CCC7CN(c7cc(-c9ccccc9O)nnc7N)C8)ccn6)C5)CC4)CC3)no2)C(C)C)cc1

Structure (SMILES): Cc1ncsc1-c1ccc([C@H](C)NC(=O)[C@@H]2C[C@@H](O)CN2C(=O)[C@@H](c2cc(N3CCN(CC4CCN(C[C@H]5C[C@H](Oc6cc(N7C8CCC7CN(c7cc(-c9ccccc9O)nnc7N)C8)ccn6)C5)CC4)CC3)no2)C(C)C)cc1
GI50 (Calu-6): 10 nM | Activity (Mus musculus [1]): 83% | clearance [2]: 12 mL/min/kg | GI50 (NCI-H1944): 0.72 nM | DC50 [3]: 1.4 nM | half-life [4]: 17 h | Activity (Mus musculus [5]): 95% | hepatic extraction ratio at 1 h [6]: 0.15 | fraction unbound at 0.25 h [7]: 0.035 | DC50 [9]: 0.062 nM

Structure (SMILES): Cc1ncsc1-c1ccc([C@H](C)NC(=O)[C@@H]2C[C@@H](O)CN2C(=O)[C@@H](c2cc(OCC#Cc3ccc(O[C@H]4C[C@H](Oc5cc(N6C7CCC6CN(c6cc(-c8ccccc8O)nnc6N)C7)ccn5)C4)cn3)no2)C(C)C)cc1
GI50 (Calu-6): 28 nM | clearance [2]: 22 mL/min/kg | concentration at 24 h [13]: 129 nM | GI50 (NCI-H1944): 0.7 nM | DC50 [3]: 5.1 nM | half-life [4]: 1.5 h | Ratio (Homo sapiens [12]): 19 | hepatic extraction ratio at 1 h [6]: 0.15 | fraction unbound at 0.25 h [7]: 0.016 | DC50 [9]: 27 nM

Structure (SMILES): Cc1ncsc1-c1ccc([C@H](C)NC(=O)[C@@H]2C[C@@H](O)CN2C(=O)[C@@H](c2cc(N3CCN(CCN4CCC(O[C@H]5C[C@H](Oc6cc(N7C8CCC7CN(c7cc(-c9ccccc9O)nnc7N)C8)ccn6)C5)CC4)CC3)no2)C(C)C)cc1
GI50 (Calu-6): 11 nM | Activity (Mus musculus [1]): 28% | clearance [2]: 9.6 mL/min/kg | concentration at 24 h [13]: 108 nM | GI50 (NCI-H1944): 1.3 nM | DC50 [3]: 3.2 nM | half-life [4]: 13 h | Activity (Mus musculus [5]): 56% | Ratio (Homo sapiens [12]): 38 | hepatic extraction ratio at 1 h [6]: 0.4 | fraction unbound at 0.25 h [7]: 0.034 | concentration at 96 h [8]: 840 ng/g | DC50 [9]: 0.085 nM

Structure (SMILES): Cc1ncsc1-c1ccc([C@H](C)NC(=O)[C@@H]2C[C@@H](O)CN2C(=O)[C@@H](c2cc(OCCN3CCC(O[C@H]4C[C@H](Oc5cc(N6C7CCC6CN(c6cc(-c8ccccc8)nnc6N)C7)ccn5)C4)CC3)no2)C(C)C)cc1
Kd [11]: 10300 nM | GI50 (NCI-H1944): > 5000 nM

GI50 (NCI-H1944): > 300 nM
Structure (SMILES): Cc1ncsc1-c1ccc([C@H](C)NC(=O)[C@@H]2C[C@H](O)CN2C(=O)[C@@H](c2cc(OCCN3CCC(O[C@H]4C[C@H](Oc5cc(N6C7CCC6CN(c6cc(-c8ccccc8O)nnc6N)C7)ccn5)C4)CC3)no2)C(C)C)cc1

Structure (SMILES): Cc1ncsc1-c1ccc([C@H](C)NC(=O)[C@@H]2C[C@@H](O)CN2C(=O)[C@@H](c2cc(OCCN3CCN(CCOc4cc(N5C6CCC5CN(c5cc(-c7ccccc7O)nnc5N)C6)ccn4)CC3)no2)C(C)C)cc1
GI50 (Calu-6): 7 nM | GI50 (NCI-H1944): 0.17 nM | DC50 [3]: 1.5 nM | Ratio (Homo sapiens [12]): 22 | T1/2 [14]: 6 s | hepatic extraction ratio at 1 h [6]: 0.72 | Ratio (Homo sapiens [15]): 0.33 | fraction unbound at 0.25 h [7]: 0.016 | DC50 [9]: 0.068 nM

Structure (SMILES): Cc1ncsc1-c1ccc([C@H](C)NC(=O)[C@@H]2C[C@@H](O)CN2C(=O)[C@@H](c2cc(N3CCC(CN4CCC(Oc5cc(N6C7CCC6CN(c6cc(-c8ccccc8O)nnc6N)C7)ccn5)CC4)CC3)no2)C(C)C)cc1
GI50 (Calu-6): 3.7 nM | Activity (Mus musculus [1]): 59% | clearance [2]: 6.7 mL/min/kg | GI50 (NCI-H1944): 0.23 nM | DC50 [3]: 0.99 nM | half-life [4]: 6.7 h | Activity (Mus musculus [5]): 83% | hepatic extraction ratio at 1 h [6]: 0.41 | fraction unbound at 0.25 h [7]: 0.006 | concentration at 96 h [8]: 774 ng/g | DC50 [9]: 0.053 nM
